In patent US20030073850A1, “4-Imidazole derivatives of benzyl and restricted benzyl sulfonamides, sulfamides, ureas, carbamates, and amides and their use” (priority 1998, published 2003):
Where a name gives a salt, the structure may show the parent alone.

Biological target: T1, α1b (hamster receptor expressed in mouse fibroblasts) (Mesocricetus auratus, UniProt P18841)
T1 construct: expressed in transfected cells; host or cells: mouse fibroblasts
T1 sequence (P18841 1-515): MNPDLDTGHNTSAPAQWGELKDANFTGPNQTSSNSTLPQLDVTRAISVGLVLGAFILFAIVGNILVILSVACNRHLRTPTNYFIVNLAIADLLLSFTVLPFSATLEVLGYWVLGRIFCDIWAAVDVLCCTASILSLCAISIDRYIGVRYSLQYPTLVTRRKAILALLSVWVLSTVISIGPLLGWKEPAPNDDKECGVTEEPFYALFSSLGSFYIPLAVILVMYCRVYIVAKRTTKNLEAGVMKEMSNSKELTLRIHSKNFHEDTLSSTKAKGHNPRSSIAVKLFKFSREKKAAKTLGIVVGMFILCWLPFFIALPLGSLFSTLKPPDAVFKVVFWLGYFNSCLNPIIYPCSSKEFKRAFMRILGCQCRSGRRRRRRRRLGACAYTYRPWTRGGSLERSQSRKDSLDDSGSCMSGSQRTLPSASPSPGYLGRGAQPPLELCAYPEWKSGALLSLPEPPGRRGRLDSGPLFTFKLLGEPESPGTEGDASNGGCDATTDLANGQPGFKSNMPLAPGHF
Experiment: Radioligand binding, [3H]-prazosin, α1b
Settings: hamster receptor expressed in mouse fibroblasts, [3H]-prazosin; read-out: Radioligand Binding Ki α1b (Hamster)
Description: For purposes of discussing a, adrenoceptor subtypes, the IUPHAR convention of using lower case letters to define molecular clones and upper case letters to indicate pharmacologically defined adrenoceptors has been followed. Compounds of formula I were evaluated in radioligand binding assays specific for α1A (rat submaxillary gland), α1b (hamster receptor expressed in mouse fibroblasts) and α1d (rat receptor expressed in mouse fibroblasts) using [^3H]-prazosin as the radioligand as described in Knepper, et al. J. Pharm.

Compound | Ki
CCn1cnc(C2CCCc3c2ccc(O)c3NS(C)(=O)=O)c1 (stereo not shown) [Example 6, N-[5-(1-ethyl-1H-imidazol-4-yl)-2-hydroxy-5,6,7,8-tetrahydro-1-naphthalenyl]methanesulfonamide, Hydrochloride] | 100 µM
CCCn1cnc(C2CCCc3c2ccc(O)c3NS(C)(=O)=O)c1.Cl (stereo not shown) [Example 7, N-[2-hydroxy-5-(1-propyl-1H-imidazol-4-yl)-5,6,7,8-tetrahydro-1-naphthalenyl]methanesulfonamide, Hydrochloride] | 100 µM
O=C(O)/C=C\C(=O)O.O=S(=O)(CC(F)(F)F)Nc1cccc2c1CCCC2c1c[nH]cn1 (stereo not shown) [Example 20, N-[5,6,7,8-tetrahydro-5-(1H-imidazol-4-yl)-1-naphthalenyl]-2,2,2-trifluoroethanesulfonamide, Maleate] | 10 µM
Cc1ccc(NS(C)(=O)=O)c2c1C(c1c[nH]cn1)CCC2.O=C(O)/C=C\C(=O)O (stereo not shown) [Example 23, N-[5,6,7,8-tetrahydro-5-(1H-imidazol-4-yl)-4-methyl-1-naphthalenyl]methanesulfonamide, Maleate] | 10 µM
O=S(=O)(Nc1cccc2c1CCCC2c1c[nH]cn1)C1CC1 (stereo not shown) [Example 27, N-[5,6,7,8-tetrahydro-(1H-imidazol-4-yl)-1-naphthalenyl]cyclopropanesulfonamide, Maleate] | 10 µM
CS(=O)(=O)Nc1cccc2c1CCCCC2c1c[nH]cn1.O=C(O)/C=C\C(=O)O (stereo not shown) [Example 38, N-[5-(1H-imidazol-4-yl)-6,7,8,9-tetrahydro-5H-benzo[a]cyclohepten-1-yl]methanesulfonamide, Maleate] | 10 µM
CCS(=O)(=O)Nc1ccc(Cl)c2c1CCCC2c1c[nH]cn1.O=C(O)/C=C\C(=O)O (stereo not shown) [Example 42, N-[4-chloro-5-(1H-imidazol-4-yl)-5,6,7,8-tetrahydro-1-naphthalenyl]ethanesulfonamide, Maleate] | 10 µM
CS(=O)(=O)Nc1ccc(Cl)c2c1CCCC2c1c[nH]cn1.O=C(O)/C=C\C(=O)O (stereo not shown) [Example 43, N-[4-chloro-5-(1H-imidazol-4-yl)-5,6,7,8-tetrahydro-1-naphthalenyl]methanesulfonamide, Maleate] | 10 µM
N-[5,6,7,8-tetrahydro-5-(1H-imidazol-4-yl)-1-naphthalenyl]-2-methylethanesulfonamide, Maleate [Example 18] | 10 µM

Tested on: not given
Experiment: not given
Settings: not given

Compound | melting point
CCS(=O)(=O)Nc1c(C)ccc2c1CCCC2c1c[nH]cn1 (stereo not shown) | 196 to 199 °C
Cc1c(Cc2c[nH]cn2)cccc1NS(C)(=O)=O.O=C(O)/C=C\C(=O)O | 143 to 144 °C
CC(c1cccc(NS(C)(=O)=O)c1)c1c[nH]cn1.O=C(O)/C=C\C(=O)O (stereo not shown) | 135 to 136 °C
CCS(=O)(=O)Nc1cccc(C(C)c2c[nH]cn2)c1.O=C(O)/C=C\C(=O)O (stereo not shown) | 114 to 119 °C
CS(=O)(=O)Nc1ccc(F)c(Cc2c[nH]cn2)c1.O=C(O)/C=C\C(=O)O | 146 to 147 °C
O=C(O)/C=C\C(=O)O.O=S(=O)(CC(F)(F)F)Nc1cccc(Cc2c[nH]cn2)c1 | 161 to 162 °C
CCS(=O)(=O)Nc1cccc(Cc2c[nH]cn2)c1O.O=C(O)/C=C\C(=O)O | 155 to 157 °C
C=C(c1cccc(NS(C)(=O)=O)c1)c1c[nH]cn1 (as salt: maleic acid salt) [Example 92, N-{3-[1-(1H-imidazol-4-yl)vinyl]phenyl}methanesulfonamide] | 167 to 170 °C
O=S(=O)(CC(F)(F)F)Nc1cccc2c1OCCC2c1c[nH]cn1 (single isomer, unassigned) (as salt: maleic acid salt) [Example 88, 2,2,2-trifluoro-N-[4-(1H-imidazol-4-yl)-3,4-dihydro-2H-chromen-8-yl]ethanesulfonamide] | 173 to 176 °C
COc1ccc2c(c1NS(C)(=O)=O)CCCC2c1c[nH]cn1.Cl (stereo not shown) [Example 1, N-[5-(1H-imidazol-4-yl)-2-methoxy-5,6,7,8-tetrahydro-1-naphthalenyl]methanesulfonamide hydrochloride] | 209 to 211 °C
CS(=O)(=O)Nc1c(O)ccc2c1CCCC2c1c[nH]cn1.Cl (stereo not shown) [Example 2, N-[2-hydroxy-5-(1H-imidazol-4-yl)-5,6,7,8-tetrahydro-1-naphthalenyl]methanesulfonamide, Hydrochloride] | 135 to 137 °C
Cc1nc(C2CCCc3c2ccc(O)c3NS(C)(=O)=O)c[nH]1.Cl (stereo not shown) [Example 3, N-[2-hydroxy-5-(2-methyl-1H-imidazol-4-yl)-5,6,7,8-tetrahydro-1-naphthalenyl]methanesulfonamide, hydrochloride] | 233 to 235 °C
Cl.Cn1cncc1C1CCCc2c1ccc(O)c2NS(C)(=O)=O (stereo not shown) [Example 4, N-[2-hydroxy-5-(1-methyl-1H-imidazol-5-yl)-5,6,7,8-tetrahydro-1-naphthalenyl]methanesulfonamide, Hydrochloride] | 260 °C
Cl.Cn1cnc(C2CCCc3c2ccc(O)c3NS(C)(=O)=O)c1 (stereo not shown) [Example 5, N-[2-hydroxy-5-(1-methyl-1H-imidazol-4-yl)-5,6,7,8-tetrahydro-1-naphthalenyl]methanesulfonamide Hydrochloride] | 256 to 258 °C
CCCn1cnc(C2CCCc3c2ccc(O)c3NS(C)(=O)=O)c1.Cl (stereo not shown) [Example 7, N-[2-hydroxy-5-(1-propyl-1H-imidazol-4-yl)-5,6,7,8-tetrahydro-1-naphthalenyl]methanesulfonamide, Hydrochloride] | 128 to 133 °C
CCS(=O)(=O)Nc1cccc2c1CCCC2c1c[nH]cn1.O=C(O)/C=C\C(=O)O (stereo not shown) [Example 12, N-[5-(1H-imidazol-4-yl)-5,6,7,8-tetrahydro-1-naphthalenyl]ethanesulfonamide Maleate] | 129 to 132 °C
CS(=O)(=O)Nc1cccc2c1OCCC2c1c[nH]cn1.O=C(O)/C=C\C(=O)O (stereo not shown) [Example 19, N-[4-(1H-imidazol-4-yl)-3,4-dihydro-2H-chromen-8-yl]methanesulfonamide, Maleate] | 172 to 174 °C
O=C(O)/C=C\C(=O)O.O=S(=O)(CC(F)(F)F)Nc1cccc2c1CCCC2c1c[nH]cn1 (stereo not shown) [Example 20, N-[5,6,7,8-tetrahydro-5-(1H-imidazol-4-yl)-1-naphthalenyl]-2,2,2-trifluoroethanesulfonamide, Maleate] | 138 to 140 °C
CS(=O)(=O)Nc1cccc2c1CCC2c1c[nH]cn1.O=C(O)/C=C\C(=O)O (stereo not shown) [Example 22, N-[1-(1H-imidazol-4-yl)-2,3-dihydro-1H-inden-4-yl]methanesulfonamide, Maleate] | 168 to 169 °C
Cc1ccc(NS(C)(=O)=O)c2c1C(c1c[nH]cn1)CCC2.O=C(O)/C=C\C(=O)O (stereo not shown) [Example 23, N-[5,6,7,8-tetrahydro-5-(1H-imidazol-4-yl)-4-methyl-1-naphthalenyl]methanesulfonamide, Maleate] | 192 to 195 °C
CS(=O)(=O)Nc1cccc2c1CCCCC2c1c[nH]cn1.O=C(O)/C=C\C(=O)O (stereo not shown) [Example 38, N-[5-(1H-imidazol-4-yl)-6,7,8,9-tetrahydro-5H-benzo[a]cyclohepten-1-yl]methanesulfonamide, Maleate] | 162 to 164 °C
CCS(=O)(=O)Nc1ccc(Cl)c2c1CCCC2c1c[nH]cn1.O=C(O)/C=C\C(=O)O (stereo not shown) [Example 42, N-[4-chloro-5-(1H-imidazol-4-yl)-5,6,7,8-tetrahydro-1-naphthalenyl]ethanesulfonamide, Maleate] | 151 to 155 °C
CS(=O)(=O)Nc1ccc(Cl)c2c1CCCC2c1c[nH]cn1.O=C(O)/C=C\C(=O)O (stereo not shown) [Example 43, N-[4-chloro-5-(1H-imidazol-4-yl)-5,6,7,8-tetrahydro-1-naphthalenyl]methanesulfonamide, Maleate] | 175 to 178 °C
CCS(=O)(=O)Nc1cccc(/C(=C/OC)c2c[nH]cn2)c1.O=C(O)/C=C\C(=O)O [Example 46, N-{3-[(Z)-1-(1H-imidazol-4-yl)-2-methoxyethenyl]phenyl}ethanesulfonamide, Maleate] | 146 to 148 °C
CS(=O)(=O)Nc1cccc2c1CCC=C2c1c[nH]cn1.O=C(O)/C=C\C(=O)O [Example 47, N-[5-(1H-imidazol-4-yl)-7,8-dihydro-1-naphthalenyl]methanesulfonamide, Maleate] | 161 to 165 °C
CCC(O)(c1cccc(NS(=O)(=O)CC)c1)c1c[nH]cn1 (stereo not shown) [Example 55, N-[3-(1-hydroxy-1-(1H-imidazol-4-yl)propyl)phenyl]ethanesulfonamide] | 120 to 124 °C

More lines, now with the values ahead:

melting point | Compound
197 to 199 °C | Cc1cc(Cc2c[nH]cn2)c(C)c(NS(C)(=O)=O)c1
202 to 204 °C | CCS(=O)(=O)Nc1cc(Br)cc(Cc2c[nH]cn2)c1C
159 to 160 °C | CCS(=O)(=O)Nc1cc(Cc2c[nH]cn2)ccc1Cl
182 to 184 °C | CCS(=O)(=O)Nc1cccc(Cc2c[nH]cn2)c1Cl
194 to 196 °C | CCS(=O)(=O)Nc1ccc(C)c(Cc2c[nH]cn2)c1
122 to 123 °C | CCS(=O)(=O)Nc1cc(Cc2c[nH]cn2)ccc1F
167 to 169 °C | CS(=O)(=O)Nc1cc(Cc2c[nH]cn2)ccc1O.Cl
194 to 196 °C | CCS(=O)(=O)Nc1cc(Br)cc(Cc2c[nH]cn2)c1
185 to 186 °C | CCS(=O)(=O)Nc1cccc(Cc2c[nH]cn2)c1OC
195 to 196 °C | CC(c1cccc(NS(C)(=O)=O)c1)c1c[nH]cn1.Cl (stereo not shown)
182 to 184 °C | CCS(=O)(=O)Nc1cc(Cl)cc(Cc2c[nH]cn2)c1Cl
140 to 152 °C | CCS(=O)(=O)Nc1cc(Cc2c[nH]cn2)ccc1C
167 to 169 °C | CCS(=O)(=O)Nc1cc(C)cc(Cc2c[nH]cn2)c1C
118 to 123 °C | CS(=O)(=O)Nc1cccc2c1CCC[C@H]2c1c[nH]cn1 [Example 9, (+)-N-[(5R)-5-(1H-imidazol-4-yl)-5,6,7,8-tetrahydro-1-naphthalenyl]methanesulfonamide]
